From ChEMBL document CHEMBL1201862, “PubChem BioAssay data set” (2004)
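Assay format: 96-well plates, 48-hour exposure. GI50 is the concentration that inhibits growth by half.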 Activity calls are given as the source filed them. No stated cut-off is given here; in the data, active = GI50 up to about 1.1 µM and inactive = higher.

Columns and labels:
Assay in all cases: NCI-60 cell line screen, 48 h
A498 = test system: A498
A549 = test system: A549
ACHN = test system: ACHN
HT-29 = test system: HT-29
Hs-578T = test system: Hs-578T
IGROV-1 = test system: IGROV-1
K562 = test system: K562
M14 = test system: M14
MOLT-4 = test system: MOLT-4
NCI-H226 = test system: NCI-H226
SF-539 = test system: SF-539
SK-OV-3 = test system: SK-OV-3
SNB-19 = test system: SNB-19
SR = test system: SR
SW-620 = test system: SW-620
U-251 = test system: U-251
UACC-62 = test system: UACC-62
COLO 205 = test system: COLO 205
HCT-116 = test system: HCT-116
MDA-MB-435 = test system: MDA-MB-435

Structure (SMILES) | GI50 (A498) | GI50 (A549) | GI50 (ACHN) | GI50 (HT-29) | GI50 (Hs-578T) | GI50 (IGROV-1) | GI50 (K562) | GI50 (M14) | GI50 (MOLT-4) | GI50 (NCI-H226) | GI50 (SF-539) | GI50 (SK-OV-3) | GI50 (SNB-19) | GI50 (SR) | GI50 (SW-620) | GI50 (U-251) | GI50 (UACC-62) | GI50 (COLO 205) | GI50 (HCT-116) | GI50 (MDA-MB-435)
O=C1CCCC2=C1CC1=C(CCCC1=O)N2c1cccc([N+](=O)[O-])c1 | > 100 µM (inactive) | > 100 µM (inactive) | > 100 µM (inactive) | > 100 µM (inactive) | > 100 µM (inactive) | > 100 µM (inactive) | > 100 µM (inactive) | > 100 µM (inactive) | > 100 µM (inactive) | > 100 µM (inactive) | > 100 µM (inactive) | > 100 µM (inactive) | > 100 µM (inactive) | > 100 µM (inactive) | > 100 µM (inactive) | > 100 µM (inactive) | > 100 µM (inactive) | – | – | –
COc1cc(C2(C)SCCCS2)c(I)c(OC)c1OC | > 100 µM (inactive) | > 100 µM (inactive) | > 100 µM (inactive) | > 100 µM (inactive) | – | > 100 µM (inactive) | 87.5 µM (inactive) | > 100 µM (inactive) | > 100 µM (inactive) | > 100 µM (inactive) | > 100 µM (inactive) | > 100 µM (inactive) | > 100 µM (inactive) | > 100 µM (inactive) | > 100 µM (inactive) | > 100 µM (inactive) | > 100 µM (inactive) | > 100 µM (inactive) | > 100 µM (inactive) | –
CS(=O)(=O)c1nc(-c2cc3c(c(S(C)(=O)=O)n2)CCC3)cc2c1CCC2 | > 100 µM (inactive) | > 100 µM (inactive) | > 100 µM (inactive) | > 100 µM (inactive) | – | 44.3 µM (inactive) | > 100 µM (inactive) | > 100 µM (inactive) | > 100 µM (inactive) | > 100 µM (inactive) | > 100 µM (inactive) | > 100 µM (inactive) | 67.5 µM (inactive) | – | > 100 µM (inactive) | 47.3 µM (inactive) | > 100 µM (inactive) | > 100 µM (inactive) | > 100 µM (inactive) | > 100 µM (inactive)
OC[C@@H](O)[C@H](O)[C@@H](O)/C=N/Nc1ccc(Cl)nn1 | > 100 µM (inactive) | > 100 µM (inactive) | > 100 µM (inactive) | > 100 µM (inactive) | > 100 µM (inactive) | > 100 µM (inactive) | – | > 100 µM (inactive) | > 100 µM (inactive) | – | > 100 µM (inactive) | > 100 µM (inactive) | > 100 µM (inactive) | – | > 100 µM (inactive) | > 100 µM (inactive) | > 100 µM (inactive) | > 100 µM (inactive) | > 100 µM (inactive) | > 100 µM (inactive)
CNC(=O)c1cccc2c(Nc3ccc(NS(C)(=O)=O)cc3OC)c3cccc(C)c3nc12 | 0.0841 µM (active) | 0.0151 µM (active) | 0.014 µM (active) | 0.478 µM (active) | – | 1.31 µM (inactive) | 0.23 µM (active) | 0.102 µM (active) | 0.0113 µM (active) | 0.0546 µM (active) | 0.0628 µM (active) | 0.054 µM (active) | 0.0555 µM (active) | < 0.01 µM (active) | 0.169 µM (active) | 0.0251 µM (active) | 0.0631 µM (active) | 0.542 µM (active) | 0.243 µM (active) | –
O=c1[nH]nc(Nc2ccc(Cl)cc2)c2nnn(-c3ccc([N+](=O)[O-])cc3)c12 | – | 14.5 µM (inactive) | 43.3 µM (inactive) | 25.4 µM (inactive) | – | 31.6 µM (inactive) | 6.35 µM (inactive) | 49.4 µM (inactive) | 8.63 µM (inactive) | 42.1 µM (inactive) | 17.5 µM (inactive) | – | 30.9 µM (inactive) | 28.1 µM (inactive) | 30.9 µM (inactive) | 14.2 µM (inactive) | – | 13.3 µM (inactive) | 13.9 µM (inactive) | 30.1 µM (inactive)
Cc1[nH]c2ccccc2c1C1=NO/C(=N\O)C(c2c(C)[nH]c3ccccc23)C1 (stereo unspecified) | 42.8 µM (inactive) | 38.6 µM (inactive) | 28.6 µM (inactive) | 22.7 µM (inactive) | – | 34.8 µM (inactive) | 33.2 µM (inactive) | 26.6 µM (inactive) | 21.4 µM (inactive) | 37.7 µM (inactive) | 23.6 µM (inactive) | 49.9 µM (inactive) | 72.8 µM (inactive) | 23.8 µM (inactive) | 57.5 µM (inactive) | 42.9 µM (inactive) | 19.9 µM (inactive) | 19.7 µM (inactive) | 28.3 µM (inactive) | –
COc1cccc2c1OC1c3ccccc3OCC1C2 (stereo unspecified) | > 100 µM (inactive) | > 100 µM (inactive) | – | > 100 µM (inactive) | – | 41.1 µM (inactive) | > 100 µM (inactive) | > 100 µM (inactive) | 96.2 µM (inactive) | > 100 µM (inactive) | > 100 µM (inactive) | > 100 µM (inactive) | – | > 100 µM (inactive) | > 100 µM (inactive) | > 100 µM (inactive) | > 100 µM (inactive) | > 100 µM (inactive) | 74.6 µM (inactive) | > 100 µM (inactive)
C=C(C)C1Cc2c(cc(OC)c3c(=O)c4cccc(O)c4oc23)O1 (stereo unspecified) | – | 31.8 µM (inactive) | 18.2 µM (inactive) | 67.1 µM (inactive) | 25.6 µM (inactive) | 18.4 µM (inactive) | > 100 µM (inactive) | 24.1 µM (inactive) | > 100 µM (inactive) | 21.2 µM (inactive) | 18.4 µM (inactive) | 19.5 µM (inactive) | 26.3 µM (inactive) | 36.1 µM (inactive) | 53.1 µM (inactive) | 16.8 µM (inactive) | 18 µM (inactive) | 56.9 µM (inactive) | 24.8 µM (inactive) | –
OCn1nc2c(C3OCCO3)cc3ccccc3n2c1=S | > 100 µM (inactive) | > 100 µM (inactive) | > 100 µM (inactive) | > 100 µM (inactive) | – | > 100 µM (inactive) | > 100 µM (inactive) | > 100 µM (inactive) | > 100 µM (inactive) | > 100 µM (inactive) | > 100 µM (inactive) | > 100 µM (inactive) | > 100 µM (inactive) | > 100 µM (inactive) | > 100 µM (inactive) | > 100 µM (inactive) | > 100 µM (inactive) | > 100 µM (inactive) | > 100 µM (inactive) | –
O=C(O)CC(Sc1ccccc1)c1ccccc1 (stereo unspecified) | > 100 µM (inactive) | > 100 µM (inactive) | > 100 µM (inactive) | > 100 µM (inactive) | > 100 µM (inactive) | > 100 µM (inactive) | > 100 µM (inactive) | > 100 µM (inactive) | > 100 µM (inactive) | > 100 µM (inactive) | – | > 100 µM (inactive) | > 100 µM (inactive) | – | > 100 µM (inactive) | > 100 µM (inactive) | > 100 µM (inactive) | > 100 µM (inactive) | > 100 µM (inactive) | > 100 µM (inactive)
CC(=O)ONC(C(=O)C(C)(C)C)C(=O)C(C)(C)C | > 100 µM (inactive) | > 100 µM (inactive) | > 100 µM (inactive) | > 100 µM (inactive) | > 100 µM (inactive) | > 100 µM (inactive) | > 100 µM (inactive) | > 100 µM (inactive) | > 100 µM (inactive) | > 100 µM (inactive) | > 100 µM (inactive) | > 100 µM (inactive) | > 100 µM (inactive) | – | > 100 µM (inactive) | > 100 µM (inactive) | – | > 100 µM (inactive) | > 100 µM (inactive) | –
COc1ccc(C2C3CCc4ccccc4C3=NN2S(=O)(=O)c2cccc(C(=O)O)c2OC)cc1 (stereo unspecified) | – | 10.1 µM (inactive) | 7.83 µM (inactive) | 5 µM (inactive) | – | 1.09 µM (active) | 4.06 µM (inactive) | 15.8 µM (inactive) | 9.02 µM (inactive) | 19.8 µM (inactive) | 6.21 µM (inactive) | 1.8 µM (inactive) | 25.4 µM (inactive) | 3.8 µM (inactive) | 6.98 µM (inactive) | 7.21 µM (inactive) | 6.14 µM (inactive) | 1.84 µM (inactive) | 10.3 µM (inactive) | 1.79 µM (inactive)
CCOC(=O)c1ccc(-n2nnc(C(N)=O)c2O)cc1 | – | > 100 µM (inactive) | > 100 µM (inactive) | > 100 µM (inactive) | > 100 µM (inactive) | > 100 µM (inactive) | > 100 µM (inactive) | > 100 µM (inactive) | > 100 µM (inactive) | > 100 µM (inactive) | – | > 100 µM (inactive) | > 100 µM (inactive) | – | > 100 µM (inactive) | > 100 µM (inactive) | > 100 µM (inactive) | > 100 µM (inactive) | > 100 µM (inactive) | > 100 µM (inactive)
CC(=O)OC1CC2C(C)(C)C(=O)C=C[C@]2(C)C2CCC3(C)C(c4ccoc4)C(=O)C4OC43[C@]12C (stereo partly specified) | 17.6 µM (inactive) | 16.7 µM (inactive) | 24.2 µM (inactive) | 16.3 µM (inactive) | – | 21 µM (inactive) | 13.1 µM (inactive) | 17.3 µM (inactive) | 13.4 µM (inactive) | 16.2 µM (inactive) | 20.1 µM (inactive) | 13.2 µM (inactive) | 31.3 µM (inactive) | 11.5 µM (inactive) | 19.5 µM (inactive) | 18.8 µM (inactive) | 14.2 µM (inactive) | 18.1 µM (inactive) | 13 µM (inactive) | –
COc1cccc(-c2cc(O)c3ccccc3n2)c1 | 11.4 µM (inactive) | 6.92 µM (inactive) | 6.92 µM (inactive) | 3.82 µM (inactive) | – | 17.2 µM (inactive) | 4.72 µM (inactive) | 4.82 µM (inactive) | 6.55 µM (inactive) | 6.89 µM (inactive) | 3.57 µM (inactive) | 5.38 µM (inactive) | 6.82 µM (inactive) | 5.5 µM (inactive) | 3.28 µM (inactive) | 9.53 µM (inactive) | 4.06 µM (inactive) | 4.93 µM (inactive) | 5.53 µM (inactive) | –
